# A melting point compilation (Tetko et al.; mined from patent text by program, amines drawn as free bases though some values may be those of a salt)
row,melting point,Compound
1,210 to 213 °C,O=C(Nc1cccc2c1CC(O)CC2)c1ccc(-c2ccc(F)c(F)c2)cc1 (centres undefined)
2,224 to 227 °C,Nc1ncnc2c1ncn2Cc1oc2ccccc2c(=O)c1-c1cccc(F)c1
3,204 to 206 °C,CCOC(=O)c1ccc(C=C2C(=O)COC2=O)s1
4,77 to 81 °C,CCCOc1cc(CCCOc2nn(C)cc2CC(=O)O)n(Cc2ccc(Cl)cc2Cl)n1
5,169 to 170 °C,Cc1ccc(S(=O)(=O)OC[C@@H]2COc3ccc4scc(Cl)c4c3O2)cc1
6,94 to 96 °C,Cn1nc(C(F)(F)F)n(-c2ccc(F)cc2)c1=S
7,80 to 90 °C,c1ccc(OCCSCc2nnc(-c3ccc(OCc4ccncc4)cc3)o2)cc1
8,237 to 238 °C,N#Cc1ncnc2[nH]ccc12
9,185 to 186 °C,O=C(CO)NCCCn1c(-c2ccc(Br)cc2)csc1=Nc1ccccc1
10,75 °C,COC(=O)CSCCn1cc(C)c(=O)[nH]c1=O
11,99 to 100 °C,CCCCCCCCCCCCCCCCCCS(=O)(=O)N[C@H]1CCCNC(=O)C1
12,246 to 248 °C,Nc1nc(COc2ccc(Cl)cc2)nc2nccnc12
13,199 to 201 °C,Cn1c(=O)cnn(-c2cc(O)c(Cl)cc2Cl)c1=O
14,153 to 158 °C,O=C(O)C=CC(=O)c1ccccc1[N+](=O)[O-]
15,63 to 65 °C,CC(C)(C#N)c1ccc(Cl)nc1
16,74 to 76 °C,CCc1cc2c(cc1CC)C(=O)C(N=[N+]=[N-])=CC2=O
17,61 to 65 °C,CC(C)(C)OC(=O)c1ccc([N+](=O)[O-])c(CBr)c1
18,44.5 to 46.5 °C,CCCC1=Nc2ccccc2CC(c2ccsc2)N1C (centres undefined)
19,136 to 138 °C,CN1C(=O)CCC2(CCC(=O)c3ccccc32)C1=O (centres undefined)
20,60 to 61 °C,CCOC(=O)C1(Cc2cccc(C)c2Br)CN(Cc2ccccc2)CCC1=O (centres undefined)
21,65 to 67 °C,COc1nc2ccc(Br)cc2c2c1C(C)(OCC(O)Cn1ccc(-c3ccc(C(F)(F)F)cc3)n1)c1ccccc1-2 (centres undefined)
22,215 to 217 °C,NS(=O)(=O)c1ccc(C2CCN(c3cc([N+](=O)[O-])ccn3)CC2)cc1
23,104 to 105 °C,COC(=O)CCCCCCCCOC1OC(CO)C(O)C(O)C1O (centres undefined)
24,111 to 113 °C,CCCCCCC(=O)CCCn1c(CCC)nc2c(N)nc3ccccc3c21
25,109 to 110 °C,CCCC(=O)Nc1cc(/C=C/C(=O)OC)n(C)c1

row,melting point,Compound
1,182 °C,O=C(/C=C/c1ccc(C(=O)O)cc1)NOC1CCCCO1 (centres undefined)
2,176 to 178 °C,Nc1c(-c2ccc(C(F)(F)F)cc2F)nnn1-c1ccc(O)cc1
3,109 to 110 °C,COC(=O)C[C@H](O)CC(=O)C=Cc1c(-c2ccc(F)cc2)c(-c2ccc(F)cc2)c(C(=O)Nc2ccc(S(N)(=O)=O)cc2)n1C(C)C
4,105 to 107 °C,CC(C)(C)OC(=O)/C=C1\CCc2cccc3c2N1CC3
5,106 to 109 °C,Oc1ccc(NCC2Cc3ccccc3C2)cc1
6,288 to 290 °C,CC1(C)CC(=O)C2=C(C1)NC1=C(C(=O)CC(C)(C)C1)C2c1cc(Cl)cc(Cl)c1
7,128 to 129 °C,COc1cc2c(c3c1OC(C)(C)C3)C(c1ccccc1)=NC(C)(C)C2
8,229 °C,CN1C(=O)C(C2=COc3ccccc3O2)=C(c2c[nH]c3ccc(F)cc23)C1=O
9,102 to 104 °C,Cc1ccc(-c2ccccc2-n2c(C)n[nH]c2=O)cc1
10,240 to 242 °C,Cn1cc(CS(C)(=O)=O)c(=O)c2ccc(C(F)(F)F)cc21
11,213 to 214 °C,CCC(O)c1ccc(Cl)c2nc3n(c12)CCCN3c1c(Cl)cc(Cl)cc1Cl (centres undefined)
12,> 300 °C,N#Cc1cccc(-c2csc(N=C(N)N)n2)n1
13,157 to 159 °C,COc1ccc(C(=O)C(CC(=O)O)c2ccccc2)cc1 (centres undefined)
14,68 to 69 °C,CCOC(=O)CCCC(=O)c1ccc(O)c(CCC(=O)OCC)c1
15,119 °C,CCCCN1CC2CN(c3ccc([N+](=O)[O-])cc3[N+](=O)[O-])CC(C1)C2(C)C
16,68 to 70 °C,CCCc1cc(OC)c(OC)c(C(=O)NC[C@@H]2CCCN2CC)c1OC
17,63 to 64 °C,CCOC(=O)c1ccc(NCCCCCc2ccccc2)cc1
18,126 to 128 °C,CC(c1ccccc1N1CCCCC1)C(C(N)=O)c1ccc(C(=O)OCc2ccccc2)cc1 (centres undefined)
19,123 to 125 °C,Cc1cc(-c2cc(C(F)(F)F)nn2-c2ccc(S(C)(=O)=O)c(F)c2)ccc1-c1ccco1
20,117 to 120 °C,CCCC(=O)C(=CNc1ccc(OCC)c(C)n1)C(=O)OCC
21,111 to 112 °C,Cc1ccccc1OCCCc1oc(-n2ccnc2C)nc1-c1ccc(Cl)cc1
22,178 to 180 °C,CN[C@@]1(C)CCN(c2c(-c3cccc(F)c3)c(C)c(C#N)c3nc(C(=O)N(C)C)oc23)C1
23,185 to 188 °C,CNc1c(N)cnn1C
24,81.6 to 83.3 °C,O=C(O)c1ccc(Cl)cc1OCCN1CCC(c2cn(Cc3ccoc3)c3ncccc23)CC1
25,335 to 337 °C,O=c1c2c[nH]c3c(c-2nn1-c1ccc(Cl)cc1)COCC3

row,melting point,Compound
1,147 to 149 °C,Nc1ccc(C23CC2C(=O)N(Cc2ccccc2)C3=O)cc1 (centres undefined)
2,135 to 137 °C,CC(CCCl)C(=O)Nc1cc(C(C)(C)C)no1 (centres undefined)
3,148 °C,CN1CCN(c2ccc(OCc3cc(CCC(=O)O)c4c(c3)CC(NS(=O)(=O)c3ccc(Cl)cc3)CC4)cc2)CC1 (centres undefined)
4,142 to 144 °C,COCCOCc1nn(C)c2c1N=C(c1ccc(-n3c(C)nc4cnccc43)cc1)CC(=O)N2C
5,114 to 115 °C,O=c1ccc(C(F)(F)F)cn1Cc1ccccc1NCCO
6,83 to 86 °C,O=S(=O)(Nc1cccc(CCOCc2noc(-c3ccc(C(F)(F)F)cc3)n2)c1)C(F)(F)F
7,129 to 130 °C,CC(C)(C)OC(=O)NCCc1c[nH]c2ccc(CO)cc12
8,85 to 86 °C,C=Cc1c(NCc2ccco2)nc(C2CC2)nc1C(=O)OC
9,111 to 112 °C,CCn1c(-c2ccccc2)c(C2=CCC(C(=O)O)(C(=O)O)CC2)c2ccccc21
10,194 °C,NS(=O)(=O)c1ccc(-n2ncc(F)c2-c2ccccc2)cc1
11,223 to 224 °C,CC(C)(C)n1nc2c(N)nc3ccccc3c2c1CCCNS(C)(=O)=O
12,193 °C,CCc1cc(=O)c2nc(OCC[Si](C)(C)C)ccc2[nH]1
13,49 to 53 °C,CCOC(=O)c1cc(O)ccc1OCC
14,40 °C,C[C@@H](Cn1ncc2ccc(O)c(Br)c21)NC(=O)OCc1ccccc1
15,> 320 °C,O=C1c2ccccc2C(=O)c2c1c(Br)n1c2Cc2ccccc2C1
16,82 °C,On1c(-c2ccc(F)cc2)nc2ccc(Cn3ccnc3)cc21
17,196 to 200 °C,CCOC(=O)NN=Cc1c[nH]c(-c2ccccc2)n1
18,140 to 143 °C,CC(C)(C)OC(=O)Nc1ccoc1C(N)=O
19,185 to 187 °C,O=C(O)CN1CCCCC1
20,187 to 191 °C,CS(=O)(=O)c1nc2cnc3cccnc3c2n1Cc1ccccc1
21,159 °C,Cc1cc(-c2cc(C(F)(F)F)[nH]n2)c(F)cc1Cl
22,171 to 173 °C,CCOC(=O)c1cn(CC)c2nc(N3CCN(C(=O)OCC)CC3)c(F)cc2c1=O
23,202 to 203 °C,CCOC(=O)Cc1n[nH]c(=O)c2cc(Cl)c(Cl)cc12
24,176 to 178 °C,CCc1noc(C)c1-c1[nH]c2ccccc2c1CC(=O)N(C)C
25,35 to 38 °C,NOCC=Cc1ccc(Br)cc1

row,melting point,Compound
1,172 to 174 °C,CC(C)c1cc2ncccc2cc1Oc1cnc(NC(CO)CO)nc1N
2,189 to 190 °C,CC(C)n1nc(-c2c(-c3ccccc3)nn3ccc(C(=O)N4CCCC4)cc23)ccc1=O
3,137 °C,O=C(O)C[C@@H](c1ccccc1)c1c[nH]c2cc(OCCCNc3ccccn3)ccc12
4,102 to 108 °C,CCOC(=O)/C(=N\O)N1N=C(N)C(Cc2ccccc2)C1=O (centres undefined)
5,178 to 179 °C,CCn1ncc2c1ncc1c(NCCCN(C)C)nc3cc(C)nn3c12
6,235 to 236 °C,CCc1cnc2c(NC(=O)c3c(Cl)cccc3Cl)cccc2c1/C=C/C(=O)O
7,184 to 187 °C,O=C(Nc1cc2ncc(CN3CCCC3)cc2cc1F)c1ccc(-c2ccc(OC(F)(F)F)cc2)cc1
8,127 to 132 °C,CCC(=O)N(C(=O)CC)c1c(I)cc(Br)cc1S(=O)(=O)Cl
9,187 to 188 °C,C1=CC(c2ccccc2)(c2ccc(N3CCOCC3)cc2)Oc2cc(N3CCOCC3)c3ccccc3c21 (centres undefined)
10,142 to 144 °C,CCCCC1(CCCC)CCc2c(OCc3ccc4ccccc4n3)ccc(Cl)c2C1O (centres undefined)
11,155 to 157 °C,Sc1ccc(OCc2ccccc2)nn1
12,133 to 135 °C,CCCCOP(=O)(Cc1cc(C(C)(C)C)c(O)c(C(C)(C)C)c1)Cc1cc(C(C)(C)C)c(O)c(C(C)(C)C)c1
13,217 to 219 °C,COC(=O)c1cc(NC=O)c2cc(Cc3ccc(F)cc3)cnc2c1O
14,134 to 135 °C,Fc1cc(CC2(Cc3ccnc(F)c3)c3cccnc3-c3cccnc32)ccn1
15,159 to 160 °C,Nc1ccc(/C=C/c2ccccc2)nc1
16,165 to 166 °C,Cc1nn(C)c(C)c1NC(=S)n1ccc2cc(Cl)ccc21
17,183 to 185 °C,CCc1ccc2oc3cc(C#N)cnc3c(=O)c2c1
18,223 to 224 °C,CSc1ccc(-c2cc3ncn([C@H](C)[C@](O)(Cn4cncn4)c4ccc(F)cc4F)c(=O)c3s2)cc1
19,118 to 120 °C,CCCCNC[C@@H](O)[C@H](Cc1ccccc1)NC(=O)OCc1ccccc1
20,137 to 139 °C,CCOc1cc(N2CCOCC2)c(OCC)cc1N=NNN1CCOCC1
21,115 °C,COc1ccc(CC(=O)c2cc(OC)c(OC)cc2C)cc1OC
22,65 to 67 °C,C#CC(C)(C)Oc1ccc2ncccc2c1
23,171 to 173 °C,COCCNc1sc(-c2cc[nH]n2)c2c1C(=O)CC(C)(C)C2
24,163 °C,CCOC(=O)C(=O)Nc1cc(OC)c(OC)cc1[N+](=O)[O-]

row,Compound,melting point
1,Cc1ccc2c(=O)[nH]c(C3CCN(C)CC3)cc2c1,236 to 238 °C
2,N#Cc1ccc(-n2c(N)nc3ccccc32)cc1Cl,245 to 248 °C
3,CC(=O)S[C@H]1CNC(=O)C1,114 to 116 °C
4,CCC1CC2C3CCC4=CC(=O)CCC4=C3C=CC2(CC)C1O (centres undefined),184 to 187 °C
5,ON=C1CN2CCC1CC2,117 to 119 °C
